ChEMBL document CHEMBL1146444, “RKS-1778, a new mammalian cell-cycle inhibitor and a key intermediate of the [11]cytochalasin group” (J Nat Prod, 1997)
Calls of active or inactive are those of the source. No cut-off for these calls is given here.

Experiments:
[1] = Cell cycle arrest in mouse temperature-sensitive FT210 cells by accumulation at M phase at 2.0 uM by flow cytometry; format: functional, cell-based
[2] = Cell cycle arrest in mouse temperature-sensitive FT210 cells by accumulation at M phase at 2.1 uM by flow cytometry; format: functional, cell-based

SMILES: CC(=O)O[C@@H]1/C=C/[C@](C)(O)C[C@@H](C)C/C=C/[C@H]2[C@@H]3O[C@]3(C)[C@@H](C)[C@H]3[C@H](Cc4ccccc4)NC(=O)[C@@]312
- Activity [1]: Active
- Activity [2]: Active

SMILES: CC(=O)O[C@@H]1/C=C/[C@](C)(O)C[C@@H](C)C/C=C/[C@H]2C=C(C)[C@@H](C)[C@H]3[C@H](Cc4ccccc4)NC(=O)[C@]321
- Activity [1]: Active
- Activity [2]: Active
